Data on 13 molecules can be found in PubChem BioAssay (NCI).

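These data come from cells grown in 96-well plates and exposed to compound for 48 hours at five concentrations. At the GI50, growth is halved. TGI: concentration producing complete growth inhibition.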

Test systems include SN12C renal; DU-145 prostate; OVCAR-3 ovarian; HCT-116 colon; NCI/ADR-RES ovarian; UO-31 renal; MDA-N; BT-549 breast; COLO 205 colon; M19-MEL melanoma; KM20L2 colon; LXFL 529 NSCLC; HOP-18 NSCLC.
Holding throughout (assay): NCI anticancer screen, dose series, 48 h

For `CCc1cc(=O)n(/C(C)=C/c2ccccc2)n1C`, the TGI in the test with SN12C renal, in the test on DU-145 prostate, with OVCAR-3 ovarian, with HCT-116 colon, in the test on NCI/ADR-RES ovarian and with UO-31 renal was > 100 µM each time. In addition, the TGI in the test on MDA-N, in the test on BT-549 breast and in the test on COLO 205 colon was > 100 µM each time.
For the molecule `CCOC(=O)c1csc(NC(=O)CCCC#N)n1`, the TGI in the test on DU-145 prostate, with OVCAR-3 ovarian, with NCI/ADR-RES ovarian, with UO-31 renal, in the test on MDA-N and in the test on COLO 205 colon was > 100 µM each time.
Turning to `c1ccc([P+](Cc2csnn2)(c2ccccc2)c2ccccc2)cc1`, the TGI in the test with M19-MEL melanoma, in the test on KM20L2 colon, with SN12C renal, in the test with LXFL 529 NSCLC, with OVCAR-3 ovarian and in the test with HCT-116 colon was > 100 µM throughout. For the same molecule, the TGI in the test with UO-31 renal, in the test with COLO 205 colon and in the test on HOP-18 NSCLC was > 100 µM throughout.
Turning to `CCOC(=O)C(C)NC(=O)N(C)C12CC3CC(CC(C3)C1)C2` (stereo not drawn), the TGI was > 452 µM in the test on M19-MEL melanoma; > 500 µM in the test with KM20L2 colon; > 500 µM in the test with SN12C renal; > 479 µM in the test with OVCAR-3 ovarian; > 500 µM in the test with HCT-116 colon; 424 µM in the test on NCI/ADR-RES ovarian. Also, the TGI was 492 µM in the test with UO-31 renal, > 316 µM in the test with COLO 205 colon and > 500 µM in the test on HOP-18 NSCLC.
Turning to `O=C1c2c(c3c4ccc(Br)cc4oc3c3[nH]c4ccccc4c23)C(=O)N1O`, in the test on DU-145 prostate, the GI50 was 3.23 µM and the TGI was > 100 µM. Also, in the test with NCI/ADR-RES ovarian, the GI50 was 2.64 µM and the TGI is > 100 µM.
For `CCC1(CC)C(=O)NC(=S)N=C1N`, the TGI with M19-MEL melanoma, with KM20L2 colon, in the test on SN12C renal, in the test with LXFL 529 NSCLC, with OVCAR-3 ovarian and with HCT-116 colon was > 100 µM each time. Moreover, the TGI in the test on UO-31 renal, in the test with COLO 205 colon and in the test with HOP-18 NSCLC was > 100 µM throughout.
For `COc1ccc(CN2C(=O)C(=O)N(C)C2=O)c2ccccc12`, the TGI with SN12C renal, in the test with DU-145 prostate, with OVCAR-3 ovarian, in the test on HCT-116 colon, in the test on NCI/ADR-RES ovarian and in the test on UO-31 renal was > 10 µM in each case. Also, the TGI in the test on MDA-N and in the test on COLO 205 colon was > 10 µM each time.
Turning to `CCOC(=O)C1=C(C)NC(=O)N([N+](=O)[O-])C1c1ccccc1C(F)(F)F` (stereo not drawn), the TGI with SN12C renal, in the test on DU-145 prostate, in the test on OVCAR-3 ovarian, in the test on HCT-116 colon, in the test with NCI/ADR-RES ovarian and in the test with UO-31 renal was > 100 µM throughout. In addition, the TGI with MDA-N is 79.7 µM; in the test on BT-549 breast, > 100 µM; with COLO 205 colon, > 100 µM.
Consider `O=C(NN1C(=O)CSC1c1ccc(Cl)c(Cl)c1)c1ccncc1` (stereo not drawn), for which the TGI in the test on KM20L2 colon, in the test with SN12C renal, with LXFL 529 NSCLC, in the test with UO-31 renal and in the test with COLO 205 colon was > 100 µM each time.
Consider `Cc1cc(C)nc(NS(=O)(=O)c2ccc(Nc3c4ccccc4nc4c(C(=O)NCCO)cccc34)cc2)n1`, for which the TGI in the test on SN12C renal is > 100 µM; in the test on DU-145 prostate, > 100 µM; with OVCAR-3 ovarian, > 100 µM; in the test with NCI/ADR-RES ovarian it was > 100 µM; in the test with MDA-N, 69.6 µM; with BT-549 breast, 34 µM. In the test with COLO 205 colon, this molecule displayed a TGI of 31.3 µM.
Turning to `O=c1c2cc3c(=O)n(CCc4ccccc4CO)c(=O)c3cc2c(=O)n1CCc1ccccc1CO`, the TGI in the test on M19-MEL melanoma, with SN12C renal, in the test on LXFL 529 NSCLC, with OVCAR-3 ovarian, with HCT-116 colon and in the test on UO-31 renal was > 100 µM in each case.
Take `COc1cc(CCCOC2OC(COC3OCC(O)C(O)C3O)C(O)C(O)C2O)cc2cc(-c3ccc4c(c3)OCO4)oc12` (stereo not drawn): the TGI in the test with M19-MEL melanoma is > 175 µM; with KM20L2 colon it was > 175 µM; with SN12C renal it was 99.5 µM; in the test on OVCAR-3 ovarian, > 175 µM; in the test with HCT-116 colon, > 175 µM; in the test on NCI/ADR-RES ovarian, > 175 µM. For the same molecule, the TGI in the test on UO-31 renal and with COLO 205 colon was > 175 µM each time.
As to `Nc1nc(Nc2ccc(OCc3cccc(F)c3)cc2)c2c(n1)[nH]c1ccc(O)cc12`, the GI50 in the test on SN12C renal is 2.08 µM; in the test on DU-145 prostate, 4.22 µM; in the test on OVCAR-3 ovarian, 1.89 µM; in the test on NCI/ADR-RES ovarian, 9.46 µM; in the test with UO-31 renal it was 1.75 µM; in the test with BT-549 breast, 1.88 µM. Also, the GI50 in the test with COLO 205 colon was 2.42 µM. Also, the TGI is 4.56 µM in the test with SN12C renal; 15.6 µM in the test on DU-145 prostate; 3.46 µM in the test on OVCAR-3 ovarian; 32 µM in the test with NCI/ADR-RES ovarian; 4.12 µM with UO-31 renal; 4.01 µM in the test on BT-549 breast. The TGI in the test on COLO 205 colon was 5.98 µM.
